# What was measured:
# [1] = test system: LDH in JIMT-1 cells; experiment: LDH activity in cytosolic extract of treated cells; type: cell-based, human; settings: JIMT-1, 24 h
# Procedure: (§1) Cells were harvested and the specific activity of Glo1 and LDH was determined in the cytosolic extract. (B) Semi-quantitative analysis of protein content as performed by Western blot using specific antibodies against β-actin and Glo1. The blot was developed by chemoluminescense detection. […] Data represent the mean±S.D. of independent experiments (n = 6).
# (§2) LDH activity was spectrophotometrically assayed in the cytosolic extract or in the of cell cultures by adding aliquots to 1 ml reaction buffer (50 mM Na2HPO4, pH 7.0, 0.15 mM NADH, and 0.3 mM pyruvate). Enzyme activity was recorded at 340 nm.
# [2] = test system: 1321N1 cells; experiment: Glutathione (GSH) level in cytosolic extract, 1321N1; type: cell-based; settings: 1321N1, 50 µM, 24 h
# Procedure: Cells were harvested and GSH concentration was determined in the cytosolic extract. Data represent the mean±S.D. of independent experiments (n = 6).
# GSH was determined using DTNB method. Briefly, cytosolic extract of tumor cells were precipitated by 5% sulfosalicylic acid neutralization, aliquots were mixed with DTNB and absorbance was read at 412 nm against a standard solution of GSH.
# [3] = test system: Glo1 in JIMT-1 cells; experiment: Glo1 protein content by Western blot; type: cell-based, human; settings: JIMT-1, 24 h
# Procedure: as §1
# An amount of 20 µg to 40 µg of cytosolic extract was loaded to SDS-pore gradient gels (4 to 20%) and run under reducing conditions. Proteins were blotted to cellulose nitrate membranes (Whatman Schleicher & Schuell, Dassel, Germany) and Glo1 was detected by anti-Glo1 monoclonal antibodies (1 µg/ml) (BioMac, Leipzig, Germany) in combination with goat anti-mouse Ig-HRP (1∶1000) (Dako, Hamburg, Germany). For comparison, β-actin was analyzed using rabbit anti-β-actin Ig (1∶2000) (Acris, Hiddenhausen, Germany) in conjunction with HRP-labeled goat anti-rabbit Ig (Dianova, Hamburg, Germany). Band visualization was performed by chemiluminescence detection (Boehringer, Mannheim, Germany).
# [4] = test system: prostate cancer PC-3 cells; experiment: Cell proliferation WST-1 assay, PC-3; type: cell-based
# Procedure: Figure 3 Growth inhibition of different tumor cell lines by polyphenols. […] Following 24-h incubation, cell proliferation was evaluated using the WST-1 assay.
# Tumor cells were cultured in RPMI medium containing 10% fetal calf serum (RPMI-FCS) (PC-3, JIMT-1, MDA-MD 231) or in DMEM-FCS (astrocytoma 1321N1 cells) containing penicillin/streptomycin (100 U penicillin/ml; 100 µg streptomycin/ml) at 37°C/5% CO2. Cytosolic protein extracts of tumor cells were prepared using extraction buffer composed of 25 mM Tris, 2 mM EDTA, 10% Glycerol, 1% Triton ×100, 2 mM DTT, 1mM PMSF, pH. 7.0 containing 0.3% protease inhibitor cocktail. Protein content was determined according to Bradford. Specific activity of enzymes analyzed in cell extracts was expressed as U/mg protein.
# Cell proliferation/vitality of tumor cells (96-well plates; 5000 cells/well) and primary human hepatocytes (24-well plates; 0.25×10^6 cells/well) was assayed using the WST-1 assay according to manufacturer's instructions. Trypan blue exclusion was performed by staining cells with 0.4% aqueous trypan blue solution according to the manufacturer's instructions.
# [5] = test system: 1321N1 cells; experiment: L-LDH release into cell supernatants; type: cell-based; settings: 50 µM
# Procedure: Tumor cells were cultured and treated as mentioned in Fig. 3. (A) LDH activity was measured in cell supernatants. (B) Cell vitality as assayed by the trypan blue exclusion test. Data represent the mean±S.D. of independent experiments (n = 6).
# as §2
# [6] = molecular target: T1, glyoxalase 1 (Glo1) (Homo sapiens, UniProt Q04760); experiment: Inhibition of purified glyoxalase 1 activity (Dixon plot); type: biochemical; settings: Dixon plot / model fit
# T1 construct: Glo1 was purified from human erythrocytes as described earlier; from tissue; host or cells: human erythrocytes
# T1 sequence (Q04760 2-184 limits assumed): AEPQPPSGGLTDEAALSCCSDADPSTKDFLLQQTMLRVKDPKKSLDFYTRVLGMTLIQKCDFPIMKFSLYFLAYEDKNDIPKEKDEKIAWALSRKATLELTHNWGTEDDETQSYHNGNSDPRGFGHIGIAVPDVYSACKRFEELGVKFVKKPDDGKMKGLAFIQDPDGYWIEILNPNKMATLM
# Procedure: Purified Glo1 (70 mU) was incubated with increasing concentrations of different polyphenols at three substrate concentrations; and enzyme activity was recorded (n = 3). The inhibitor concentration was plotted vs. the reciprocal of enzyme activity (1/v) in Dixon plots.
# Glo1 was purified from human erythrocytes as described earlier. Briefly, erythrocytes were treated with butanol/chloroform to denature hemoglobin followed by acetone and ammonium sulphate fractionation.
# The determination of Glo1 (E.C.4.4.1.5) activity has been described previously. […] The inhibition constant, Ki value of the inhibitors was evaluated by Dixon plot showing the reciprocal of enzyme velocity against the inhibitor concentration at variable concentrations of the substrate. Human Glo2 (E.C.3.1.2.6) was measured using the substrate S-lactoylglutathione as described earlier.
# A goodness-of-fit criterion (Akaike's information criterion, AIC) was used for falsification of incompatible inhibition models. […] Spearman's rank correlation test was applied to evaluate the correlation between the IC50 values of pro-inflammatory cytokine release and the Ki-values of various polyphenols. Data were presented as means±S.D. of at least three independent experiments. […] In all other tests, significance has been considered at values of p<0.05.
# [7] = test system: T2, Glo1 in JIMT-1 cells; experiment: Specific Glo1 activity in cytosolic extract of treated cells; type: cell-based, human; settings: JIMT-1, 24 h
# T2 construct: endogenous in cells; host or cells: JIMT-1 breast carcinoma cells (ACC 589; DSMZ)
# Procedure: Cells were harvested and the specific activity of Glo1 and LDH was determined in the cytosolic extract. (B) Semi-quantitative analysis of protein content as performed by Western blot using specific antibodies against β-actin and Glo1. The blot was developed by chemoluminescense detection. […] Data represent the mean±S.D. of independent experiments (n = 6). Tumor cells were cultured in RPMI medium containing 10% fetal calf serum (RPMI-FCS) (PC-3, JIMT-1, MDA-MD 231) or in DMEM-FCS (astrocytoma 1321N1 cells) containing penicillin/streptomycin (100 U penicillin/ml; 100 µg streptomycin/ml) at 37°C/5% CO2. Cytosolic protein extracts of tumor cells were prepared using extraction buffer composed of 25 mM Tris, 2 mM EDTA, 10% Glycerol, 1% Triton ×100, 2 mM DTT, 1mM PMSF, pH. 7.0 containing 0.3% protease inhibitor cocktail. Protein content was determined according to Bradford. Specific activity of enzymes analyzed in cell extracts was expressed as U/mg protein. […] The inhibition constant, Ki value of the inhibitors was evaluated by Dixon plot showing the reciprocal of enzyme velocity against the inhibitor concentration at variable concentrations of the substrate. Human Glo2 (E.C.3.1.2.6) was measured using the substrate S-lactoylglutathione as described earlier.
compound,measurement,setting,value
"COc1cc(C=CC(=O)CC(=O)C=Cc2ccc(O)c(OC)c2)ccc1O [curcumin, 1,7-bis(4-hydroxy-3-methoxyphenyl)-1,6-heptadiene-3,5-dione]",LDH activity in cytosolic extract,[1],increased at higher curcumin concentrations
same,GSH diminished by,[2],approximately 20%
same,Glo1 protein content (Western blot),[3],no alteration
same,effect on PC-3 cells at 100 µM,"[4]; 100 µM, 24 h, morphology lost, necrotic cell death",toxic effect
same,concentration giving strong anti-proliferative effects,"[4]; PC-3, 24 h, WST-1",above 50 µM
same,L-LDH release,[5]; 6-h incubation,not significantly increased
same,LDH release,[5]; 24-h incubation,increased
same,mode of enzyme inhibition,[6],competitive
same,specific Glo1 activity in treated cells,[7],decreased dose-dependently

# Source: publication PMC2567432 (PLoS ONE, 2008)
